The text below walks through data of patent US20230118688A1, “1H-PYRAZOLO[4,3-d]PYRIMIDINE COMPOUNDS AS TOLL-LIKE RECEPTOR 7 (TLR7) AGONISTS” (BRISTOL-MYERS SQUIBB COMPANY, priority 2020, published 2023).

Read-outs that look alike come from different tables or passages of the source. Some results are limits rather than exact numbers.

As usually defined, the EC50 is the concentration that produces a half-maximal response.

For one assay, the target named is T1, human TLR7 (Homo sapiens, UniProt Q9NYK1).
T1 construct: host or cells: HEK-Blue TLR7 cells (engineered human embryonic kidney cells)
T1 sequence (Q9NYK1 27-1049): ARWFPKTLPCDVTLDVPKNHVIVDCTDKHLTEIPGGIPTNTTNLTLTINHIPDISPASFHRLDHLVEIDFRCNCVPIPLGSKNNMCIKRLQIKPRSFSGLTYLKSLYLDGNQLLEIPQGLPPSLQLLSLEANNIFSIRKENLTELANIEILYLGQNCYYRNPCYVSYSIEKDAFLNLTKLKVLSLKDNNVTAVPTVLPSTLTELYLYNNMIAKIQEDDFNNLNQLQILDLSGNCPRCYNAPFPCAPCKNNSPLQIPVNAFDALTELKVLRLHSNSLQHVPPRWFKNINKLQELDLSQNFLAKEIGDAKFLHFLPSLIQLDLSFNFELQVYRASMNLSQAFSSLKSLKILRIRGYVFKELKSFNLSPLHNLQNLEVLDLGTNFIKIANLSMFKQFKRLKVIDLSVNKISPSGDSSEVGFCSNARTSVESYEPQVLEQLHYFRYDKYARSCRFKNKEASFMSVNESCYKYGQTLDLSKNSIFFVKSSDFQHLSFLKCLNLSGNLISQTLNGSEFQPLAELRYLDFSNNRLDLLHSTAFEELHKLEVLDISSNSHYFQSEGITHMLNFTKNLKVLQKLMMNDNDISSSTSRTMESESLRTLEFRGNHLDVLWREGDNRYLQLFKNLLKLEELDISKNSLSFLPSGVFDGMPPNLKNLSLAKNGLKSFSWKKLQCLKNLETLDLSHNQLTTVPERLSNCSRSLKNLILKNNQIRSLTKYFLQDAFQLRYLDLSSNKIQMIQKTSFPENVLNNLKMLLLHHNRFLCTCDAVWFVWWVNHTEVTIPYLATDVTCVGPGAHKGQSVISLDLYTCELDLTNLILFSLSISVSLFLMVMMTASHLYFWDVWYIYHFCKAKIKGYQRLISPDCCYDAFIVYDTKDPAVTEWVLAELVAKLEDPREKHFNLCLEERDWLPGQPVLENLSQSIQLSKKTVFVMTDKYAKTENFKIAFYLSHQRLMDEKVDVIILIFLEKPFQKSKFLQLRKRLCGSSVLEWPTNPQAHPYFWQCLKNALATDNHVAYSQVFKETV
The assay can be described thus: Human TLR7 agonist activity reporter assay (HEK-Blue TLR7 cells, SEAP reporter). The assay is classed as cell-based. The note with it: 18 h treatment. Summed up:
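HEK-Blue TLR7 cells (15,000/well) treated with compound for 18 h at 37 °C, 5% CO2. Secreted SEAP measured with Quanti-Blue, 30 min, OD 620 nm. EC50 taken as concentration giving half-maximal response between baseline and maximum.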

The next assay relates to CD69. Nature of the assay: Induction of CD69 in human whole blood. The format is cell-based. The note with it: 17 h, CD69 surface staining, 100% set to 1 uM resiquimod. Summed up:
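Heparinized human whole blood, RPMI-diluted, incubated with TLR7 agonist (final 1 uM from 1 mM stock) for 17 h at 37 °C. CD69-PE surface staining with CD14/CD19 gating, fix/lysis, then flow cytometry; curves normalized with 1 uM resiquimod as 100%.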

[1] abbreviates: average where assay repeated, Table A1, read-out: hTLR7 Agonism EC50.
Where [2] appears, read: average where assay repeated, Table A1, read-out: hWB CD69 EC50.
The mark [3] stands for this setting: Table A2, read-out: hTLR7 Agonism EC50.
Setting [4] is: Table A2, read-out: hWB CD69 EC50.

As to `CCCCNc1nc(N)nc2cnn(Cc3cc(CN4CCCN(C)CC4)ccc3OC)c12` [Compound 131, N7-butyl-1-({2-methoxy-5-[(4-methyl-1,4-diazepan-1-yl)methyl]phenyl}methyl)-1H-pyrazolo[4,3-d] pyrimidine-5,7-diamine], the values for the EC50 on human TLR7 (setting [1]) and in the assay on CD69 (setting [2]) were 112 nM and 85.9 nM, respectively.
`CCCCNc1nc(N)nc2cnn(Cc3cc(CN4CCNCC4)ccc3OC)c12` [Compound 134, N7-butyl-1-({2-methoxy-5-[(piperazin-1-yl)methyl]-phenyl}methyl)-1H-pyrazolo[4,3-d]pyrimidine-5,7-diamine]: the values for the EC50 on human TLR7 (setting [1]) and in the assay on CD69 (setting [2]) were 201 nM and 62.5 nM, respectively.
Regarding `CCCCNc1nc(N)nc2cnn(Cc3cc(CN4CC5(COC5)C4)ccc3OC)c12` [Compound 124, N7-butyl-1-{[2-methoxy-5-({2-oxa-6-azaspiro-[3.3]heptan-6-yl}-methyl)phenyl]methyl}-1H-pyrazolo[4,3-d]pyrimidine-5,7-diamine], the EC50 was determined as 190 nM on human TLR7 (setting [1]) and 86.3 nM with CD69 (setting [2]).
As for `CCCCNc1nc(N)nc2cnn(Cc3cc(COCCC(C)(C)O)ccc3OC)c12` [Compound 144, 4-[(3-{[5-amino-7-(butyl-amino)-1H-pyrazolo[4,3-d]pyrimidin-1-yl]methyl}-4-methoxyphenyl)methoxy]-2-methylbutan-2-ol], the half-maximal effective concentration (EC50) on human TLR7 (setting [1]) is 562 nM; with CD69 (setting [2]), at least 1000 nM.
`CCC[C@@H](CCO)Nc1nc(N)nc2cnn(Cc3cc(C(=O)N[C@@H]4CCN(C)C4)ccc3OC)c12` [Compound 154, 3-[(5-amino-7-{[(3S)-1-hydroxyhexan-3-yl]amino}-1H-pyrazolo[4,3-d]pyrimidin-1-yl)methyl]-4-methoxy-N-[(3R)-1-methylpyrrolidin-3-yl] benzamide]: the figures for the concentration giving a half-maximal response (EC50) at human TLR7 (setting [1]) and in the assay with CD69 (setting [2]) were 280 nM and 144 nM, respectively.
Turning to `CCCCNc1nc(N)nc2cnn(Cc3cc(CNC4CC4)ccc3OC)c12` [Compound 121], the EC50 on human TLR7 (setting [1]) was determined as 116 nM; in the assay on CD69 (setting [2]), 56.9 nM.
With `COc1ccc(C(=O)NC2CCN(C)CC2)cc1Cn1ncc2nc(N)nc(NCC3CC4(CC4)C3)c21` [Compound 152, 3-({5-amino-7-[({spiro-[2.3]hexan-5-yl}methyl)-amino]-1H-pyrazolo[4,3-d]pyrimidin-1-yl}methyl)-4-methoxy-N-(1-methylpiperidin-4-yl)benzamide], the 50% effective concentration (EC50) on human TLR7 (setting [1]) worked out at 467 nM; with CD69 (setting [2]) it was 159 nM.
Regarding `CCCCNc1nc(N)nc2cnn(Cc3cc(COCCCO)ccc3OC)c12` [Compound 143, 3-[(3-{[5-amino-7-(butyl-amino)-1H-pyrazolo[4,3-d]pyrimidin-1-yl]methyl}-4-methoxyphenyl)-methoxy]propan-1-ol], the results for the EC50 at human TLR7 (setting [1]) and with CD69 (setting [2]) were 424 nM and 725 nM, respectively.
Turning to `CCCCNc1nc(N)nc2cnn(Cc3cc(CN(C)CCNC)ccc3OC)c12` [Compound 126, N7-butyl-1-{[2-methoxy-5-({methyl[2-(methylamino)-ethyl]amino}methyl)phenyl]methyl}-1H-pyrazolo[4,3-d]pyrimidine-5,7-diamine], the EC50 on human TLR7 (setting [1]) was 158 nM; with CD69 (setting [2]), 98.9 nM.
For the compound “N7-butyl-1-{[2-methoxy-5- ({octahydropyrrolo[3,4-c]- pyrrol-2-yl}methyl)phenyl]- methyl}-1H-pyrazolo[4,3- d]pyrimidine-5,7-diamine [Compound 135]”, the figures for the concentration for a half-maximal effect (EC50) on human TLR7 (setting [1]) and with CD69 (setting [2]) were 448 nM and 325 nM, respectively.
For the compound `CCCCNc1nc(N)nc2cnn(Cc3cc(CNC(=O)CN(C)C)ccc3OC)c12` [Compound 136, N-[(3-{[5-amino-7-(butyl-amino)-1H-pyrazolo[4,3-d]pyrimidin-1-yl]methyl}-4-methoxyphenyl)methyl]-2-(dimethylamino)acetamide], the EC50 was found to be 51.1 nM on human TLR7 (setting [1]) and 19.1 nM in the assay on CD69 (setting [2]).
As for `CCCCNc1nc(N)nc2cnn(Cc3cc(CN4CC5(C4)CN(C(=O)C4CCC4)C5)ccc3OC)c12` [Compound 125, N7-butyl-1-{[5-({6-cyclobutanecarbonyl-2,6-diazaspiro[3.3]heptan-2-yl}methyl)-2-methoxy-phenyl]methyl}-1H-pyrazolo[4,3-d]pyrimidine-5,7-diamine], the EC50 came to 191 nM on human TLR7 (setting [1]) and 369 nM in the assay with CD69 (setting [2]).
Regarding `CCCCNc1nc(N)nc2cnn(Cc3cc(CO)ccc3OC)c12` [Compound 140, (3-((5-amino-7-(butylamino)-1H-pyrazolo[4,3-d]pyrimidin-1-yl)methyl)-4-methoxyphenyl)methanol], the EC50 worked out at 27.5 nM on human TLR7 (setting [1]) and 134 nM in the assay with CD69 (setting [2]).
For `CC[C@@H](CCO)Nc1nc(N)nc2cnn(Cc3cc(CN4CCN(C)CC4)ccc3OC)c12` [Compound 163, (3S)-3-{[5-amino-1-({2-methoxy-5-[(4-methylpiperazin-1-yl)methyl]phenyl}methyl)-1H-pyrazolo[43-d]pyrimidin-7-yl]amino}pentan-l-ol] the same measures were 267 nM and 119 nM.
Take `CCC[C@@H](CCO)Nc1nc(N)nc2cnn(Cc3cc(CNC4CCOCC4)c(F)cc3OC)c12` [Compound 165, (3S)-3-({5-amino-1-[(4-fluoro-2-methoxy-5-{[(oxan-4-yl)amino]-methyl}phenyl)methyl]-1H-pyrazolo[4,3-d]pyrimidin-7-yl}amino)hexan-1-ol]: the EC50 came to 89.9 nM on human TLR7 (setting [3]) and 27.3 nM in the assay with CD69 (setting [4]).
As to `CCCCNc1nc(N)nc2cnn(Cc3cc(CN4CC(F)(F)C4)ccc3OC)c12` [Compound 151, N7-butyl-1-({5-[(3,3-difluoro-azetidin-1-yl)methyl]-2-methoxyphenyl}methyl)-1H-pyrazolo[4,3-d] pyrimidine-5,7-diamine], the EC50 at human TLR7 (setting [1]) is 768 nM; in the assay with CD69 (setting [2]), at least 1000 nM.
Consider `CCC[C@@H](CCO)Nc1nc(N)nc2cnn(Cc3cc(CN4CCN(CCO)CC4)ccc3OC)c12` [Compound 156, (3S)-3-({5-amino-1-[(5-{[4-(2-hydroxyethyl)piperazin-1-yl]methyl}-2-methoxy-phenyl)methyl]-1H-pyrazolo[4,3-d]pyrimidin-7-yl}amino)hexan-1-ol], for which the results for the 50% effective concentration (EC50) at human TLR7 (setting [1]) and in the assay with CD69 (setting [2]) were 56.9 nM and 73.6 nM, respectively.
For `CCC[C@@H](CCO)Nc1nc(N)nc2cnn(Cc3cc(CN4C[C@H]5C[C@@H]4CN5C)c(F)cc3OC)c12` [Compound 171, (3S)-3-({5-amino-1-[(4-fluoro-2-methoxy-5-{[(1R,4R)-5-methyl-2,5-diazabicyclo[2.2.1]heptan-2-yl]methyl}phenyl)methyl]-1H-pyrazolo[4,3-d]pyrimidin-7-yl}amino)hexan-1-ol], the EC50 at human TLR7 (setting [3]) worked out at 437 nM; in the assay on CD69 (setting [4]) it was 140 nM.
Consider `CCC[C@@H](CCO)Nc1nc(N)nc2c(C)nn(Cc3cc(CN4CCN(C)CC4)ccc3OC)c12` [Compound 164, (3S)-3-{[5-amino-1-({2-methoxy-5-[(4-methylpiperazin-1-yl)methyl]phenyl}methyl)-3-methyl-1H-pyrazolo[4,3-d]pyrimidin-7-yl]amino}hexan-1-ol], for which the results for the EC50 at human TLR7 (setting [1]) and with CD69 (setting [2]) were 48.5 nM and 21.7 nM, respectively.
As for `COc1ccc(CNC2CCOCC2)cc1Cn1ncc2nc(N)nc(NCC3CC4(CC4)C3)c21` [Compound 150, 1-[(2-methoxy-5-{[(oxan-4-yl)amino]methyl}phenyl)-methyl]-N7-({spiro[2.3]-hexan-5-yl}methyl)-1H-pyrazolo[4,3-d]pyrimidine-5,7-diamine], the figures for the concentration giving a half-maximal response (EC50) on human TLR7 (setting [1]) and with CD69 (setting [2]) were 387 nM and 298 nM, respectively.
Consider `CCC[C@@H](CCO)Nc1nc(N)nc2cnn(Cc3cc(CN(C)CCN(C)C)cnc3OC)c12` [Compound 170, (3S)-3-[(5-amino-1-{[5-({[2-(dimethyl-amino)ethyl](methyl)amino}-methyl)-2-methoxypyridin-3-yl]methyl}-1H-pyrazolo[4,3-d]pyrimidin-7-yl)amino]hexan-1-ol], for which the EC50 on human TLR7 (setting [3]) worked out at 770 nM; in the assay with CD69 (setting [4]), 170 nM.
